Laboratory results as given in US20220372014A1, “NEUROPROTECTIVE COMPOUNDS AND METHODS OF USE THEREOF” (The Johns Hopkins University, priority 2019, published 2022).

What was measured:
calcineurin = assay: Calcineurin cellular activity assay in SH-SY5Y cells; format: cell-based; conditions: 1 μM, 6 h
Description: Calcineurin activity assay. Calcineurin activity was measured using a calcineurin cellular activity assay (Enzo Life Sciences) according to manufacturer's protocols. See Sangadala et al. (2019) Int. J. Mol. Sci. 20:1900. SH-SY5Y cells treated with FK506 or compound 121 were placed in a desalting column to remove excess phosphates and nucleotides. Total phosphate activity was determined in the samples by incubating with a calcineurin-specific substrate supplied in the manufacturer and measured by monitoring absorbance at 620 nm. Calcineurin activity was calculated as the difference between total phosphatase activity minus the phosphatase activity in the presence of 10 mM EGTA that blocks calcineurin activity.

pS6 kinase activity = assay: Immunoblot of pS6K, pS6 and p4E-BP1 levels in SH-SY5Y cells; format: cell-based; conditions: 0.5 or 1 μM, 3 h
Description: FIGS. 14A-14G show the characterization of compound 121. […] Bars represent means±s.e.m. ***P<0.0005, two-way ANOVA followed by Tukey's post hoc test (n=4). […] Bars represent mean±s.e.m. ***P<0.0005, two-way ANOVA followed by Tukey's post hoc test (n=4). […] Bars represent means±s.e.m. **P<0.005, ***P<0.0005, one-way ANOVA followed by Tukey's post hoc test (n=3). […] Bar represent mean±s.e.m. ***P<0.0005, one-way ANOVA followed by Tukey's post hoc test (n=3). […] Quantification of inhibition of PARP-1 activity by compound 56, compound 121 and ABT-888 is shown. Graphs represent mean±s.e.m. ***P<0.0005, two-way ANOVA followed by Tukey's post hoc test (n=3). FIGS. 14F and 14G show Alamar blue cell viability assay from SH-SY5Y cells pre-incubated with either compound 56 or 121 in response to (14F) 0.5 μM staurosporine (STS) or (14G) from HT 22 cells incubated with 1 ng/ml of TNF-α with 50 μM z-VAD. Bars represent mean±s.e.m. ***P<0.0005, two-way ANOVA followed by Tukey's post hoc test (n=5).
Tissue lysate preparation and western blot analysis. […] Protein concentrations were determined using the BCA assay (Pierce) and samples were separated using SDS polyacrylamide gels and transferred onto nitrocellulose membranes. […]

DNA-MIF/PAAN complex = molecular target: T1, DNA-MIF/PAAN complex (Homo sapiens, UniProt P14174); assay: Electrophoretic mobility shift assay (EMSA) of PAAN/MIF with biotin-labeled DNA substrate (PS30); format: binding; conditions: 1-100 μM
T1 construct: GST (N, cleaved yes); made in house; host or cells: Escherichia coli
Description: Electrophoretic mobility shift assay (EMSA). EMSA assays were performed using the Light-Shift Chemiluminescent EMSA kit (Thermo Scientific) following the manufactures instruction. Recombinant PAAN/MIF protein (2 μM) was incubated with 1-100 μM PAANIB-1 as indicated in the binding buffer containing 10 mM MgCl2 for 10 min and further incubated with biotin-labeled DNA substrates (10 nM) for 30 min on ice. The mixture were separated on 6% retardation polyacrylamide and transferred to a Nylon membrane. Immunoblot analysis was performed to detect the biotin-labeled DNA using the Chemiluminescent Nucleic Acid Detection Module (Thermo Scientific).

PAAN/MIF WT or variants = assay: Biolayer interferometry (ForteBio Octet) binding assay; design: species or system human
Description: (§1) Purification of PAAN/MIF recombinant proteins. Human PAAN/MIF (NM_002415) cDNA and its variants were subcloned into pGEX-6β-1 vector (GE Healthcare) and mutants were generated using a QuikChange site-directed mutagenesis kit (Stratagene). The sequences were confirmed by automated DNA sequencing. The protein was expressed and purified from Escherichia coli by glutathione sepharose (GE Healthcare). The GST tag was subsequently proteolytically removed. GST protein was used as a negative control in the nuclease assay and PAAN/MIF proteins purified by FPLC using Superdex 200 10/300GL column (GE Healthcare, Life Sciences) were also used in the nuclease assays.
Biolayer interferometry assay. The dose-dependent binding of compound 121 for PAAN/MIF WT or PAAN/MIF variants were determined by a biolayer interferometry assay using Octet RED96 (ForteBio). See Guo et al. (2018) Nat. Chem. 11:254-63. All the proteins used in this assay were tagged with GST. Anti-GST biosensor tips (ForteBio) were used to immobilize the GST proteins after prewetting with 1X kinetic buffer (ForteBio). The equilibrated GST biosensors were loaded with PAAN/MIF WT or variants (25 μg/ml). Background binding controls were measured by sensors that were incubated in buffer without proteins. All assays were performed by a standard protocol in 96-well black plates (Greiner Bio) with a total volume of 200 μl per well. All the data were analyzed by Octet data analysis software.

PAAN/MIF = assay: In vitro PAAN/MIF nuclease assay (PS30 or RF substrate, PAGE gel, noncleaved substrate DNA); format: biochemical, human
Description: Nuclease assay. Purified PAAN/MIF protein (4 μM) was incubated with compounds (10 μM) in the nuclease buffer [10 mM Tris-C1 (pH 7.0) and 10 mM MgCl2] for 20 m on ice. Then samples were added with 1 μM of PAAN/MIF substrate (PS30 or RF) and incubated for 1 h at 37° C. The reaction was terminated with loading buffer containing 10 mM EDTA and separated on 15% TBE-urea polyacrylamide (PAGE) gel or 20% TBE PAGE gel.
as §1

[1] = test system: α-syn PFF injected WT mice; assay: Intrastriatal α-syn PFF mouse model (TH/Nissl stereology, HPLC of dopamine and DOPAC, pole test, grip strength test, pulsed-field gel, weight)
[2] = both doses, 5 and 15 mg/kg/day oral, 5 months

T1 sequence (P14174 whole entry, one chain of several): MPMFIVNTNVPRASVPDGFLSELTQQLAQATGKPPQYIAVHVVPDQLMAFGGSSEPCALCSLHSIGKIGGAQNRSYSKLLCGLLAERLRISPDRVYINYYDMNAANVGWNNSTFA

Question: What does the source list for `COc1ccc(CC[C@H]2OC(=O)[C@@H]3CCCCN3C(=O)C(=O)C(C)(C)COC(=O)C=CCCN(C)C(=O)[C@@H]3CCCN3C(=O)[C@H](COC(C)(C)C)N(C)C(=O)C(c3ccccc3)NC(=O)[C@H](C)N(C)C(=O)COc3cc(F)cc2c3)cc1OC` (mixture of isomers) [compound 121]?
Answer: FK506 sensitive calcineurin activity (calcineurin): failed to inhibit; rapamycin sensitive pS6 kinase activity (pS6 kinase activity): failed to inhibit; interaction of PAAN/MIF with its substrate (DNA-MIF/PAAN complex): does not disrupt; direct binding of PAAN/MIF WT and Y99A mutant (PAAN/MIF WT or variants): exhibited binding; direct binding of mutants L61A, N72A and 60-63A (PAAN/MIF WT or variants): remarkably decreased; nuclease activity of MIF 66-67A or MIF 97-99A mutants (PAAN/MIF; mutants K66A and I67A, N97A, Y98A and Y99A): remained sensitive to inhibition; nuclease activity of PAAN/MIF 60-63A and PAAN/MIF N72A mutants (PAAN/MIF; mutants S60A, L61A, H62A and S63A (MIF 60-63A), N72A): became resistant; tolerability (toxicity, weight) ([1]; 5 and 15 mg/kg/day oral, 5 months): no overt toxicity or weight loss; behavioral deficits (pole test, grip strength test) [1, 2]: prevents; loss of DA neurons (TH and Nissl stereology, TH immunoblot, HPLC of DA and DOPAC) [1, 2]: prevents the loss of DA neurons; α-syn PFF-induced large scale genomic DNA cleavage in vivo ([1]; pulse gel electrophoresis): significantly attenuated
